Where two headings read alike, the source gives them in different places. Where only a bound is given, the exact number is not on record here.

Test [1] deals with T1, pY641-STAT6 in PBMC (Homo sapiens, UniProt P42226).
T1 construct: Cryopreserved Peripheral Blood Mononuclear Cells (PBMC) are from AllCells; host or cells: cryopreserved PBMC
T1 sequence (P42226 1-847): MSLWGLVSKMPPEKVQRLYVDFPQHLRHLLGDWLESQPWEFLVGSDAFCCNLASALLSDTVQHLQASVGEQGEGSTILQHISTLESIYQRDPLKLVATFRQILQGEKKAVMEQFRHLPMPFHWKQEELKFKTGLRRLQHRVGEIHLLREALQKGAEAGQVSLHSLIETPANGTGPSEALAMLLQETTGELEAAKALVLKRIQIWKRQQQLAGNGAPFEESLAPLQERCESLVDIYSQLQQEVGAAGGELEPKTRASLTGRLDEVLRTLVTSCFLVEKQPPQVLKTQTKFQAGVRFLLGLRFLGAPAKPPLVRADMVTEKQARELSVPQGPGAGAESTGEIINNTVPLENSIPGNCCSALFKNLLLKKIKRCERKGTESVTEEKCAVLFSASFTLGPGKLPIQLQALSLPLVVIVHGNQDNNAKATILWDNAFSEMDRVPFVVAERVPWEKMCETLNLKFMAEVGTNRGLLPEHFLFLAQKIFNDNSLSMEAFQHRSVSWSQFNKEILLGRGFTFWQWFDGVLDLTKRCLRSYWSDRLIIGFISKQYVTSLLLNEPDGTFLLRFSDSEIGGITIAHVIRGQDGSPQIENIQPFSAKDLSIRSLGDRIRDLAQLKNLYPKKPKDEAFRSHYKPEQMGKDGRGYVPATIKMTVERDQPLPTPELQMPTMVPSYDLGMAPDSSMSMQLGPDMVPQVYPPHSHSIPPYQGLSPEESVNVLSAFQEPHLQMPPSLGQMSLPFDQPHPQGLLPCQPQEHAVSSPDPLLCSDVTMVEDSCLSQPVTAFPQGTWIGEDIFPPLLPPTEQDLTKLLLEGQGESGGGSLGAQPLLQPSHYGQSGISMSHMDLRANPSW
Put plainly: MSD-pSTAT-PBMC Assay (pSTAT6, IL-4 stimulated). In kind it is cell-based. Conditions: compound 3 hrs, then 1 ng/mL IL-4 for 10 min. The method in brief: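 Thawed human PBMC rested overnight in IMDM/10% FBS, then got compound for 3 hrs before a 10 min cytokine pulse: 1 ng/mL IL-4 for pSTAT6, 10 ng/mL IL-6 for pSTAT3. Lysates went to MSD sandwich capture on total STAT6 or STAT3 with phospho-specific detection. IC50 came from background-subtracted, DMSO-normalized signal.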

Test [2] concerns the target T2, pY705-STAT3 in PBMC (Homo sapiens, UniProt P40763).
T2 construct: Cryopreserved Peripheral Blood Mononuclear Cells (PBMC) are from AllCells; host or cells: cryopreserved PBMC
Put plainly: MSD-pSTAT-PBMC Assay (pSTAT3, IL-6 stimulated). Conditions: compound 3 hrs, then 10 ng/mL IL-6 for 10 min. In kind it is cell-based. The method, boiled down: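 MSD electrochemiluminescence read-out: total STAT captured, probed with anti-pY641-STAT6 or anti-pY705-STAT3. Human PBMC, 3 h compound pretreatment, 10 min stimulation (IL-4 1 ng/mL or IL-6 10 ng/mL). Unstimulated signal subtracted, DMSO-normalized, variable-slope IC50.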

The mark [3] stands for this setting: PBMC, Table 1114, read-out: pSTAT6.
The mark [4] stands for this setting: PBMC, Table 1114, read-out: pSTAT3.
[5] abbreviates: PBMC, Table 115, read-out: STAT3.

T2 sequence (P40763 whole entry): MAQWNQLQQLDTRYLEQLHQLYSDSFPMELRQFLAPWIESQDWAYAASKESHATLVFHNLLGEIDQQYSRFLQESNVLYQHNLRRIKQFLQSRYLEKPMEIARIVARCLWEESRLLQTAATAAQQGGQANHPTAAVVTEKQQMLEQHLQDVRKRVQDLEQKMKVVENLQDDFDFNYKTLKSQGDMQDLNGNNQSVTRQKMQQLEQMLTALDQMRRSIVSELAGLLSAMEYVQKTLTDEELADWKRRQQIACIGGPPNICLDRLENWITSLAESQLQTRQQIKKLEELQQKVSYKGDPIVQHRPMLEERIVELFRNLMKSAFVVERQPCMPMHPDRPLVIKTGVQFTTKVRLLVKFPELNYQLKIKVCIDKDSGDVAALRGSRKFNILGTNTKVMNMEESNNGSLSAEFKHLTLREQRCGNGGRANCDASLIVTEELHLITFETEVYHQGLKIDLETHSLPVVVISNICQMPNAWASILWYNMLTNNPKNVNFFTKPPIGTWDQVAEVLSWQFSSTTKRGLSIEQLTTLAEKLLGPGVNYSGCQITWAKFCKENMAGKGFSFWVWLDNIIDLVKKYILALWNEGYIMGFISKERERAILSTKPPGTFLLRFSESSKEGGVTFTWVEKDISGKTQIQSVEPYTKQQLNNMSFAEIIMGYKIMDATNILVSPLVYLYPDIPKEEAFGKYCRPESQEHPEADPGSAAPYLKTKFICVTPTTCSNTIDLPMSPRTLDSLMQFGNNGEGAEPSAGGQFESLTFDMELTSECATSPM

Consider `CC(C)(C)C(=O)OCOP(=O)(OCOC(=O)C(C)(C)C)C(F)(F)c1ccc2sc(C(=O)N[C@H]3CCCC[C@H]4CC[C@@H](C(=O)N5C[C@H](c6ccccc6)[C@@H](C#N)C5)N4C3=O)cc2c1` (relative stereo) [Compound 190, ((((2-(((3S,6S,10aS)-3-(rel- trans)-3-cyano-4-phenyl-pyrrolidine-1-carbonyl)-5-oxodecahydro-pyrrolo[1,2-a]azocin-6-yl)carbamoyl)benzo[b]thiophen-5-yl)difluoro-methyl)phos-phoryl)bis(oxy)) bis(methylene) bis(2,2-dimethyl-propanoate)], for which the IC50 in test [1] (setting [3]) and in test [2] (setting [4]) was less than 0.1 µM in each case.

For the compound `CC(C)(C)C(=O)OCOP(=O)(OCOC(=O)C(C)(C)C)C(F)(F)c1ccc2sc(C(=O)N[C@@]3(C)CCCC[C@H]4CC[C@@H](C(=O)N5CC(c6ccccn6)C5)N4C3=O)cc2c1` [Compound 150, (((difluoro(2-(((3S,6S,10aS)-6-methyl-5-oxo-3-(3-(pyridin-2-yl)azetidine-1-carbonyl)decahydropyrrolo [1,2-a]azocin-6-yl)carbamoyl)benzo[b]thiophen-5-yl)methyl)phosphoryl)bis (oxy))bis (methylene) bis(2,2-dimethyl-propanoate)], the IC50 is more than 3 µM in test [1] (setting [3]) and 0.1 to 1 µM in test [2] (setting [4]).

Take `CCCCOC(=O)[C@H](C)NP(=O)(Oc1cccc2ccccc12)C(F)(F)c1ccc2ccc(C(=O)N[C@H]3CCCC[C@H]4CC[C@@H](C(=O)N5CC(c6ccccc6)CC56CC6)N4C3=O)cc2c1` (stereo partly drawn) [Compound 406, butyl ((difluoro(7-(((3S,6S,10aS)-5-oxo-3-(6-phenyl-4-azaspiro[2.4]heptane-4-carbonyl)decahydropyrrolo[1,2-a]azocin-6-yl)carbamoyl)naphthalen-2-yl)methyl) (naphthalen-1-yloxy)phosphoryl)-L-alaninate]: the IC50 in test [1] (STAT6, PBMC, Table 115) was 1 to 3 µM; in test [2] (setting [5]) it was more than 3 µM.

Regarding `CC(C)OC(=O)[C@H](C)NP(=O)(Oc1ccccc1)C(F)c1ccc2sc(C(=O)N[C@H]3CCC[C@H]4CC[C@@H](C(=O)N5CC(c6cccnc6)C5)N4C3=O)cc2c1` (stereo partly drawn) [Compound 196, isopropyl ((fluoro(2-(((3S,6S,9aS)-5-oxo-3-(3-(pyridin-3-yl)azetidine-1-carbonyl)octahydro-1H-pyrrolo[1,2-a]azepin-6-yl)carbamoyl)benzo[b]thiophen-5-yl)methyl) (phenoxy)phosphoryl)-L-alaninate], the IC50 in test [1] (pSTAT6, PBMC, Table 1114) was more than 3 µM; in test [2] (setting [4]) it was 0.1 to 1 µM.

For the compound `CCCC(=O)SCCOP(=O)(OCCSC(=O)CCC)C(F)(F)c1ccc2sc(C(=O)N[C@H]3CCCC[C@H]4CC[C@@H](C(=O)N(C)c5ccc6nnccc6c5)N4C3=O)cc2c1` [Compound 131, S,S′-(((((2-(((3S,6S,10aS)-3-(cinnolin-6-yl(methyl)carbamoyl)-5-oxodecahydro-pyrrolo[1,2-a]azocin-6-yl)carbamoyl)benzo[b]thiophen-5-yl)difluoromethyl)phosphoryl)bis (oxy))bis(ethane-2,1-diyl)) dibutanethioate], the IC50 in test [1] (setting [3]) was less than 0.1 µM; in test [2] (setting [4]), 0.1 to 1 µM.

Take `CCCOC(=O)[C@H](C)NP(=O)(Cc1ccc2sc(C(=O)N[C@H]3CCC[C@H]4CC[C@@H](C(=O)N5CC(c6cnccc6OC)C5)N4C3=O)cc2c1)Oc1ccccc1` (stereo partly drawn) [Compound 255, propyl (((2-(((3S,6S,9aS)-3-(3-(4-methoxypyridin-3-yl)azetidine-1-carbonyl)-5-oxooctahydro-1H-pyrrolo[1,2-a]azepin-6-yl)carbamoyl)benzo [b]thiophen-5-yl)methyl)(phenoxy)phosphoryl)-L-alaninate]: the IC50 in test [1] (STAT6, PBMC, Table 115) was more than 3 µM; in test [2] (setting [5]) it was less than 0.1 µM.

For `CC(C)CC(=O)SCCOP(=O)(OCCSC(=O)CC(C)C)C(F)(F)c1ccc2ccc(C(=O)N[C@H]3CCCC[C@H]4CC[C@@H](C(=O)N5CC(n6ccnn6)[C@H](O)C5)N4C3=O)cc2c1` (relative stereo) [Compound 1086, S,S′-((((difluoro(7-(((3S,6S,10aS)-3-((rel-trans)-3-hydroxy-4-(1H-1,2,3-triazol-1-yl)pyrrolidine-1-carbonyl)-5-oxodecahydro-pyrrolo [1,2-a]azocin-6-yl)carbamoyl)naphthalen-2-yl)methyl)phosphoryl)bis(oxy))bis(ethane-2,1-diyl)) bis(3-methylbutanethioate)], the IC50 in test [1] (PBMC, Table 115, read-out: STAT6) is 0.1 to 1 µM; in test [2] (setting [5]), less than 0.1 µM.

With `CCCOC(=O)[C@H](C)NP(=O)(Cc1ccc2sc(C(=O)N[C@H]3CCC[C@H]4CC[C@@H](C(=O)N5CCC(c6cccnc6)C5)N4C3=O)cc2c1)Oc1ccccc1` (stereo partly drawn) [Compound 252, propyl (((2-(((3S,6S,9aS)-5-oxo-3-(3-(pyridin-3-yl)pyrrolidine-1-carbonyl)octahydro-1H-pyrrolo[1,2-a]azepin-6-yl)carbamoyl)benzo [b]thiophen-5-yl)methyl)(phenoxy)phosphoryl)-L-alaninate], the IC50 in test [1] (STAT6, PBMC, Table 115) was in the range of 0.1 to 1 µM; in test [2] (setting [5]) it was 1 to 3 µM.

As for `CCCOC(=O)[C@H](C)NP(=O)(Oc1ccccc1)[C@@H](F)c1ccc2sc(C(=O)N[C@H]3CCCC[C@H]4CC[C@@H](C(=O)N5C[C@@H](C#N)[C@H](c6ccccc6)C5)N4C3=O)cc2c1` (single isomer, unassigned) [Compound 343], the IC50 is less than 0.1 µM in test [1] (STAT6, PBMC, Table 115) and more than 3 µM in test [2] (setting [5]).

Consider `CCCOC(=O)[C@H](C)NP(=O)(Oc1ccccc1)[C@H](F)c1ccc2sc(C(=O)N[C@H]3CCC[C@H]4CC[C@@H](C(=O)N5CC(c6cnccc6N(C)C)C5)N4C3=O)cc2c1` (single isomer, unassigned) [Compound 954], for which the IC50 in test [1] (STAT6, PBMC, Table 115) is more than 3 µM; in test [2] (setting [5]), less than 0.1 µM.

“S,S′- ((((difluoro(2- (((3S,6S,9aS)-5-oxo-3- (3-(pyridin-3- yl)azetidine-1- carbonyl)octahydro- 1H-pyrrolo[1,2-a] azepin-6-yl) carbamoyl)benzo[b] thiophen-5-yl)methyl) phosphoryl)bis(oxy)) bis(ethane-2,1-diyl)) bis(2,2- dimethylpropanethioate) [Compound 175]”: the IC50 in test [1] (setting [3]) is 0.1 to 1 µM; in test [2] (setting [4]), less than 0.1 µM.

Regarding `CCCOC(=O)[C@H](C)NP(=O)(Oc1ccccc1)[C@@H](F)c1ccc2sc(C(=O)N[C@H]3CCC[C@H]4CC[C@@H](C(=O)N5C[C@@H](c6ccccc6)[C@H](C#N)C56CC6)N4C3=O)cc2c1` (stereo partly drawn) [Compound 382, propyl (((R)-(2-(((3S,6S,9aS)-3-((6R,7S)-7-cyano-6-phenyl-4-azaspiro[2.4]heptane-4-carbonyl)-5-oxooctahydro-1H-pyrrolo[1,2-a]azepin-6-yl)carbamoyl)benzo [b]thiophen-5-yl)fluoromethyl) (phenoxy)phosphoryl)-L-alaninate], the IC50 in test [1] (STAT6, PBMC, Table 115) is less than 0.1 µM; in test [2] (STAT3, PBMC, Table 115), more than 3 µM.

Take `CCCOC(=O)[C@H](C)NP(=O)(Oc1ccccc1)[C@H](F)c1ccc2sc(C(=O)N[C@H]3CCC[C@H]4CC[C@@H](C(=O)N5C[C@H](c6cccnc6)[C@@H](C#N)C56CC6)N4C3=O)cc2c1` (single isomer, unassigned) [Compound 354]: the IC50 in test [1] (STAT6, PBMC, Table 115) is less than 0.1 µM; in test [2] (setting [5]) it was more than 3 µM.

On to `CC(C)(C)C(=O)SCCOP(=O)(OCCSC(=O)C(C)(C)C)C(F)(F)c1ccc2sc(C(=O)N[C@H]3CC4(CC[C@H]5CC[C@@H](C(=O)N6CC(c7cccnc7)C6)N5C3=O)CC4)cc2c1` [Compound 130, S,S′-((((difluoro(2-(((3′S,6′S,10a′S)-5′-oxo-3′-(3-(pyridin-3-yl)azetidine-1-carbonyl)octahydro-5′H-spiro [cyclopropane-1,8′-pyrrolo[1,2-a]azocin]-6′-yl)carbamoyl)benzo[b]thiophen-5-yl)methyl)phosphoryl)bis (oxy))bis (ethane-2,1-diyl)) bis(2,2-dimethylpropane-thioate)], for which the IC50 in test [1] (setting [3]) is more than 3 µM; in test [2] (setting [4]), less than 0.1 µM.

The values above are taken from patent publication US20250215029A1 (Recludix Pharma, Inc., priority 2022, published 2025).
